This is an account of results in ChEMBL document CHEMBL1201862, “PubChem BioAssay data set” (2004).

Broadly, the GI50 is the concentration giving 50% growth inhibition.

Some test systems named below: HL-60; A549; UO-31; RXF 393; SW-620; MDA-MB-231; RPMI-8226; NCI/ADR-RES; CCRF-CEM; MDA-MB-435; HOP-92; OVCAR-8; SF-268; Hs-578T; COLO 205; T47D; OVCAR-3; UACC-257; SK-OV-3; BT-549.
Common to all, as to assay: DTP human tumour cell line panel, 48 h

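Step 1: Grow cells in 96-well plates. Step 2: Expose to compound for 48 hours at 5 concentrations. Step 3: Interpolate endpoints linearly; if unreached, use highest concentration. Abbreviation: GI50, concentration required for 50% inhibition of growth.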 Active and inactive are the calls of the source. Cut-off read from the data, not from the text of the source: active = GI50 up to about 1.1 µM and inactive = higher. Some results are limits rather than exact numbers.

For `Cc1ccc(C2NC(=O)c3ccccc3N2)c(C)c1` (stereo not drawn), the GI50 in the assay with HL-60 is 0.453 µM (active); with A549 it was 5.65 µM (inactive); in the assay with UO-31 it was 6.81 µM (inactive); in the assay on RXF 393, 3.91 µM (inactive); in the assay on SW-620, 1.05 µM (active); in the assay on MDA-MB-231, 7.4 µM (inactive). The GI50 is 0.807 µM (active) in the assay on RPMI-8226; 1.34 µM (inactive) in the assay on NCI/ADR-RES; 1.63 µM (inactive) in the assay with CCRF-CEM; 0.191 µM (active) in the assay on MDA-MB-435; 9.53 µM (inactive) with HOP-92; 5.28 µM (inactive) in the assay on OVCAR-8. Moreover, the GI50 in the assay on SF-268 was 10.2 µM (inactive); in the assay on Hs-578T, 2.4 µM (inactive); in the assay on COLO 205 it was 2.11 µM (inactive); in the assay with T47D it was 6.01 µM (inactive); with OVCAR-3, 1.16 µM (inactive); with UACC-257, 6 µM (inactive). For the same compound, in the assay with SK-OV-3, the GI50 was 2.22 µM (inactive).
On to `Cc1ccc(C(=O)N/N=C(\N=N\c2ccccc2C(=O)O)c2ccc(N(C)C)cc2)cc1`, for which the GI50 is 53.5 µM (inactive) in the assay with HL-60; 98.2 µM (inactive) in the assay with A549; 80.4 µM (inactive) in the assay with UO-31; > 100 µM (inactive) in the assay on SW-620; > 100 µM (inactive) in the assay on MDA-MB-231; > 100 µM (inactive) with RPMI-8226. Besides, the GI50 with NCI/ADR-RES is 71.6 µM (inactive); in the assay with CCRF-CEM, 43.5 µM (inactive); in the assay on MDA-MB-435 it was 22.9 µM (inactive); with HOP-92, > 100 µM (inactive); in the assay with OVCAR-8 it was > 100 µM (inactive); in the assay on SF-268, > 100 µM (inactive). In addition, the GI50 was > 100 µM (inactive) with Hs-578T; 35.2 µM (inactive) in the assay on COLO 205; 22.2 µM (inactive) in the assay on OVCAR-3; > 100 µM (inactive) in the assay on UACC-257; > 100 µM (inactive) in the assay on BT-549.
With `CCC(c1ccc(OC)cc1)C1NC(=S)NC1=O` (stereo not drawn), the GI50 in the assay on HL-60 is 12.4 µM (inactive); in the assay on A549 it was > 50 µM (inactive); in the assay with UO-31, > 50 µM (inactive); with RXF 393, > 50 µM (inactive); in the assay on SW-620 it was > 50 µM (inactive); in the assay on MDA-MB-231 it was > 50 µM (inactive). In addition, the GI50 in the assay on RPMI-8226, in the assay on NCI/ADR-RES, in the assay on CCRF-CEM, with MDA-MB-435, in the assay on HOP-92 and in the assay with OVCAR-8 was > 50 µM (inactive) throughout. The GI50 with SF-268, in the assay with Hs-578T, in the assay with COLO 205, with T47D, in the assay with OVCAR-3 and in the assay with UACC-257 was > 50 µM (inactive) in each case. In addition, the GI50 in the assay on SK-OV-3 is > 50 µM (inactive).
As for `O=C1/C(=C/c2cccc(Br)c2)CCc2ccccc21`, the GI50 was 5.68 µM (inactive) in the assay on HL-60; 16.4 µM (inactive) with A549; 13.8 µM (inactive) in the assay on UO-31; 5.51 µM (inactive) with SW-620; 20.4 µM (inactive) in the assay with MDA-MB-231; 2.99 µM (inactive) in the assay on RPMI-8226. The GI50 is 14 µM (inactive) in the assay with NCI/ADR-RES; 3.26 µM (inactive) in the assay with CCRF-CEM; 12.4 µM (inactive) in the assay on MDA-MB-435; 14.7 µM (inactive) with HOP-92; 16.1 µM (inactive) in the assay on OVCAR-8; 6.76 µM (inactive) with SF-268. In addition, the GI50 in the assay with Hs-578T is 6.05 µM (inactive); with COLO 205, 20.8 µM (inactive); in the assay on OVCAR-3, 15.2 µM (inactive); in the assay with UACC-257, 14.8 µM (inactive); in the assay on BT-549 it was 9.53 µM (inactive); with SK-OV-3 it was 22.8 µM (inactive).
